# According to publication PMC11356900, “Synthesis, Structural Properties and Biological Activities of Novel Hydrazones of 2-, 3-, 4-Iodobenzoic Acid” (Molecules, 2024):
# Experiments:
# [1] = tested on: Proteus mirabilis ATCC 12453; assay: Broth microdilution MIC/MBC; conditions: ATCC12453
# [2] = tested on: Staphylococcus aureus ATCC 29213; assay: Broth microdilution MIC/MBC; conditions: ATCC29213
# T47D cell line = assay: MTT cytotoxicity assay; type: cell-based
# Protocol: (§1) Among all the newly synthesized compounds, four compounds designated as: 14, 20, 21 and 27 were selected for further testing of their cytotoxic properties at the doses of 10, 25, 50, 75 and 100 µM. The cytotoxic properties of the above compounds were tested on the cancer cell lines, i.e., A549 (ECACC 86012804) (non-small-cell lung cancer), T47D (ECACC 85102201) (breast cancer), HeLa (ATCC® CCL-2™) (cervical cancer) and normal line L929 (NCTC clone 929, ATCC® CCL-1™) (mouse fibroblasts) using the MTT test for 24- and 48 h cultures.
# (§2) A549 (ECACC 86012804) (non-small-cell lung cancer) and T47D (ECACC 85102201) (breast cancer) were obtained from ECACC and propagated in Dulbecco’s Minimal Essential Medium, supplemented with 2 mM of glutamine, antibiotics ([…] streptomycin, 1% of 100 U/L penicillin) and 10% Fetal Bovine Serum. HeLa (ATCC® CCL-2™) (cervical cancer) and L929 (NCTC clone 929, ATCC® CCL-1™) (mouse fibroblasts) cell lines were obtained from ATCC and propagated in the Eagle Minimal Essential Medium supplemented with antibiotics ([…] streptomycin, 1% of 100 U/L penicillin) and with 10% and 5% FBS, respectively. The cell line was routinely grown in 75 cm^2 tissue culture flasks and kept in an incubator (humidified atmosphere of 5% CO2 at 37 °C). All examined cell lines were tested against mycoplasma contamination with microbiological assays.
# (§3) The cell viability of tested compounds (14, 20, 21 and 27) was assessed by the MTT assay. In brief, the exponentially growing cells were plated in 100 μL/well in 96-well plates. After 24 h culturing, the cells were treated with different concentrations of compounds (range 10–100 μM). After 24 and 48 h of incubation, 10 μL of 5 mg/mL MTT was added to each well and the plates were incubated at 37 °C for additional 4 h. The medium was subsequently removed, the purple-colored precipitates of formazan were dissolved in 100 μL of DMSO. The color absorbance was recorded at 570 nm using a BioTek model EPOCH ELISA plate reader. All experiments were performed in triplicate. The absorbance values were in the range of linearity of the Lambert–Beer law.
# A549 cell line = assay: MTT cytotoxicity assay; type: cell-based
# Protocol: as §1, §2, §3
# HeLa cell line = assay: MTT cytotoxicity assay; type: cell-based; conditions: for cytotoxicity: 24 h culture
# Protocol: as §1, §2, §3
compound,measurement,setting,value
"O=C(N/N=C/c1cc(Cl)cc(I)c1O)c1ccc(I)cc1 [Compound 27, N-[(5-chloro-2-hydroxy-3-iodophenyl)methylidene]-4-iodobenzohydrazide]",MBC,[1],1000 µg/mL
same,MBC/MIC,[1],2
same,MIC,[1],500 µg/mL
same,MBC,[2],125 µg/mL
same,MIC,[2],62.5 µg/mL
same,cell proliferation,"T47D cell line; 24h, 10 µM, Repeat No 1",96%
same,cell proliferation,"T47D cell line; 24h, 10 µM, Repeat No 2",91%
same,cell proliferation,"T47D cell line; 24h, 25 µM, Repeat No 1",91%
same,cell proliferation,"T47D cell line; 24h, 25 µM, Repeat No 2",82%
same,cell proliferation,"T47D cell line; 24h, 50 µM, Repeat No 1",83%
same,cell proliferation,"T47D cell line; 24h, 50 µM, Repeat No 2",79%
same,cell proliferation,"T47D cell line; 24h, 75 µM, Repeat No 1",84%
same,cell proliferation,"T47D cell line; 24h, 75 µM, Repeat No 2",87%
same,cell proliferation,"T47D cell line; 24h, 100 µM, Repeat No 1",86%
same,cell proliferation,"T47D cell line; 24h, 100 µM, Repeat No 2",91%
same,cell proliferation,"T47D cell line; 48h, 10 µM, Repeat No 1",82%
same,cell proliferation,"T47D cell line; 48h, 10 µM, Repeat No 2",75%
same,cell proliferation,"T47D cell line; 48h, 25 µM, Repeat No 1",88%
same,cell proliferation,"T47D cell line; 48h, 25 µM, Repeat No 2",84%
same,cell proliferation,"T47D cell line; 48h, 50 µM, Repeat No 1",81%
same,cell proliferation,"T47D cell line; 48h, 50 µM, Repeat No 2",80%
same,cell proliferation,"T47D cell line; 48h, 75 µM, Repeat No 1",79%
same,cell proliferation,"T47D cell line; 48h, 75 µM, Repeat No 2",72%
same,cell proliferation,"T47D cell line; 48h, 100 µM, Repeat No 1",83%
same,cell proliferation,"T47D cell line; 48h, 100 µM, Repeat No 2",81%
same,cell proliferation,"A549 cell line; A549, 24h, 10 µM, Repeat No 1",95%
same,cell proliferation,"A549 cell line; A549, 24h, 10 µM, Repeat No 2",92%
same,cell proliferation,"A549 cell line; A549, 24h, 25 µM, Repeat No 1",97%
same,cell proliferation,"A549 cell line; A549, 24h, 25 µM, Repeat No 2",89%
same,cell proliferation,"A549 cell line; A549, 24h, 50 µM, Repeat No 1",94%
same,cell proliferation,"A549 cell line; A549, 24h, 50 µM, Repeat No 2",87%
same,cell proliferation,"A549 cell line; A549, 24h, 75 µM, Repeat No 1",87%
same,cell proliferation,"A549 cell line; A549, 24h, 75 µM, Repeat No 2",92%
same,cell proliferation,"A549 cell line; A549, 24h, 100 µM, Repeat No 1",109%
same,cell proliferation,"A549 cell line; A549, 24h, 100 µM, Repeat No 2",103%
same,effect on proliferation in words,"A549 cell line; A549, 24 h culture, dose of 100 µM",increase in the proliferation of cancer cells
same,cell proliferation,"A549 cell line; A549, 48h, 10 µM, Repeat No 1",84%
same,cell proliferation,"A549 cell line; A549, 48h, 10 µM, Repeat No 2",87%
same,cell proliferation,"A549 cell line; A549, 48h, 25 µM, Repeat No 1",87%
same,cell proliferation,"A549 cell line; A549, 48h, 25 µM, Repeat No 2",82%
same,cell proliferation,"A549 cell line; A549, 48h, 50 µM, Repeat No 1",88%
same,cell proliferation,"A549 cell line; A549, 48h, 50 µM, Repeat No 2",89%
same,cell proliferation,"A549 cell line; A549, 48h, 75 µM, Repeat No 1",91%
same,cell proliferation,"A549 cell line; A549, 48h, 75 µM, Repeat No 2",87%
same,cell proliferation,"A549 cell line; A549, 48h, 100 µM, Repeat No 1",98%
same,cell proliferation,"A549 cell line; A549, 48h, 100 µM, Repeat No 2",95%
same,cell proliferation,"HeLa cell line; 24h, 10 µM, Repeat No 1",74%
same,cell proliferation,"HeLa cell line; 24h, 10 µM, Repeat No 2",83%
same,cell proliferation,"HeLa cell line; 24h, 25 µM, Repeat No 1",69%
same,cell proliferation,"HeLa cell line; 24h, 25 µM, Repeat No 2",73%
same,cell proliferation,"HeLa cell line; 24h, 50 µM, Repeat No 1",61%
same,cell proliferation,"HeLa cell line; 24h, 50 µM, Repeat No 2",67%
same,cell proliferation,"HeLa cell line; 24h, 75 µM, Repeat No 1",72%
same,cell proliferation,"HeLa cell line; 24h, 75 µM, Repeat No 2",69%
same,cell proliferation,"HeLa cell line; 24h, 100 µM, Repeat No 1",63%
same,cell proliferation,"HeLa cell line; 24h, 100 µM, Repeat No 2",59%
same,cytotoxicity,HeLa cell line; dose of 50 µM,37%
same,cytotoxicity,HeLa cell line; dose of 100 µM,41%
same,cell proliferation,"HeLa cell line; 48h, 10 µM, Repeat No 1",77%
same,cell proliferation,"HeLa cell line; 48h, 10 µM, Repeat No 2",82%
same,cell proliferation,"HeLa cell line; 48h, 25 µM, Repeat No 1",82%
same,cell proliferation,"HeLa cell line; 48h, 25 µM, Repeat No 2",71%
same,cell proliferation,"HeLa cell line; 48h, 50 µM, Repeat No 1",61%
same,cell proliferation,"HeLa cell line; 48h, 50 µM, Repeat No 2",49%
same,cell proliferation,"HeLa cell line; 48h, 75 µM, Repeat No 1",51%
same,cell proliferation,"HeLa cell line; 48h, 75 µM, Repeat No 2",43%
same,cell proliferation,"HeLa cell line; 48h, 100 µM, Repeat No 1",63%
same,cell proliferation,"HeLa cell line; 48h, 100 µM, Repeat No 2",57%
